Data published in ChEMBL document CHEMBL3507680, “University of Dundee, Gates Library screen for HepG2 cell viability”.

Assay: Human HepG2 cell viability assay in 384 well format
Format: toxicity, cell-based
Parameters: dose 125 nL, time 70.5 hour; cytotoxicity at 70.5 h: concentration not given beside the values
Details: HepG2 cells, read-out: Inhibition

Row | SMILES | cytotoxicity at 70.5 h
1 | O=C(NCCN1CCOCC1)c1ccc(-n2ccc3ccccc32)s1 | -8.71%
2 | CC(C)NC(=O)N1CCOC2(CCCNC2)C1 (stereo not drawn) | 4.28%
3 | O=C(c1ccccn1)N1CCCC(c2nccn2Cc2ccncc2)C1 (stereo not drawn) | -4.69%
4 | O=C(c1ccccn1)N1CCc2ncnc(N3CCOCC3)c2CC1 | -5.19%
5 | CSCCC(=O)N1C[C@H](Nc2ccnc(C)n2)[C@@H](C(C)C)C1 | -23.4%
6 | CC(O)CNc1c(NCc2ccco2)c(=O)c1=O (stereo not drawn) | -9.21%
7 | CCNC(=O)[C@@H]1C[C@@H](N)CN1C(=O)c1cc2ccccc2[nH]1 | -1.64%
8 | NCc1n[nH]c(-c2ccc(F)cc2)n1 | -0.714%
9 | COCCO[C@@H]1CCN(C(=O)c2ccc(C)o2)[C@@H]1Cc1cccnc1 | 4.05%
10 | c1cc(CN2CCC3(CC2)COC(COCC2CC2)C3)co1 (stereo not drawn) | -20.3%
11 | CCS(=O)(=O)N1CCn2cc(CN(C)Cc3ccco3)nc2C1 | -2.7%
12 | CN(C)C(C(=O)N1CCN(CCn2cccc2)CC1)c1ccc(F)cc1 (stereo not drawn) | -3.42%
13 | COc1ccc(C)nc1NC(=O)Cc1c(C)nn(C)c1C | -0.279%
14 | COc1cccc(CCNC(=O)CN2CCCC2c2noc(C)n2)c1 (stereo not drawn) | -6.83%
15 | CN1CCC(Cc2noc(-c3cn(Cc4ccccc4Cl)nn3)n2)CC1 | 0.52%
16 | CC(C)c1noc(C2CCCN2C(=O)CN2CCc3ccccc32)n1 (stereo not drawn) | 23.7%
17 | Cc1oncc1C(=O)NCc1cc(=O)n2c(n1)CN(C)CCC2 | -14.9%
18 | Cc1nc(-c2cccs2)ccc1C(=O)N1CCN(CCO)CC1 | 0.744%
19 | Cc1c(CNC(=O)c2cn(CCC3CCCCN3)nn2)cnn1C (stereo not drawn) | -1.47%
20 | CS(=O)(=O)NCC1CCCN(C(=O)COCc2ccccc2)C1 (stereo not drawn) | -12.3%
21 | O=C1CCC(C(=O)N2CCC(Cn3cc(C4CCCC4)nn3)CC2)=NN1 | -2.69%
22 | N#Cc1ccc(CC(=O)N2CCCC(n3cccn3)C2)cc1 (stereo not drawn) | -5.65%
23 | CCc1cc(NCc2cc3n(n2)CCCN(S(C)(=O)=O)C3)nc(C)n1 | -6.87%

Row | SMILES | cytotoxicity at 70.5 h
24 | CC(C)c1cc(C(=O)NCc2nc(-c3ccc(F)cc3)n[nH]2)n[nH]1 | 12.6%
25 | COc1ccccc1C1(CNCc2cccc(C#N)c2)CCOCC1 | -9.16%
26 | CC(C)(C)C(=O)NS(=O)(=O)c1ccc(F)cc1C(F)(F)F | -3.41%
27 | Cc1cc(Oc2ccccc2C)nc(C2CCCN2)n1 (stereo not drawn) | 9.24%
28 | Cc1ccc(C(=O)N2CC[C@H](N3CCOCC3)[C@H](CCCO)C2)cc1O | -8.22%
29 | CC(=O)c1cnc(NCC2OCCc3ccccc32)nc1C (stereo not drawn) | -9.22%
30 | O=c1ccncn1Cc1csc(C2CC2)n1 | -3.74%
31 | CC(C)(C)c1cc(NC(=O)CN2CCCC(Cn3cncn3)C2)on1 (stereo not drawn) | 25.7%
32 | COCC(=O)NC1CC2(CCN(CCO)CC2)c2ccccc21 (stereo not drawn) | 8.06%
33 | N#Cc1cc(F)c(NCCc2ccc(S(N)(=O)=O)cc2)c(F)c1 | -2.35%
34 | C[C@@H]1CN(S(C)(=O)=O)C[C@]12CCN(Cc1cccnc1)C2=O | 14.9%
35 | CCOc1cccc(CNC(=O)N2CCC(Cc3cnn(C)c3)C2)c1 (stereo not drawn) | -13.7%
36 | CN1CCN([C@@H]2CCN(C3CCOCC3)[C@H]2Cc2cnn(C)c2)CC1 | -6.56%
37 | Cc1cccc(N2CC(c3nnc(N)s3)CC2=O)c1 (stereo not drawn) | -13.7%
38 | CCN1CCOC(CNCc2ccccc2OCc2cccnc2)C1 (stereo not drawn) | 0.0939%
39 | CN(C)Cc1cnc2n1CCN(C(=O)Cc1cccc(F)c1)CC2 | 4.88%
40 | CCn1ccnc1CN1CCCN(C(=O)c2ccnn2C)CC1 | -3.84%
41 | O=c1[nH][nH]cc1-c1ccnc(NCCc2ccc(F)cc2)n1 | -6.1%
42 | CC(C)c1nnc2sc(CC3CCS(=O)(=O)C3)nn12 (stereo not drawn) | -7.56%
43 | CNC(=O)c1cn2cc(-c3cccc(Cl)c3)n(CC3CC3)c(=O)c2n1 | -8.05%
44 | CC(CC(F)(F)F)NCc1ccccc1-n1ccnc1 (stereo not drawn) | -10.9%
45 | CCc1ncnc2c1CCN(C(=O)c1ccccn1)CC2 | -24.1%
46 | Cc1cc(NC(=O)CN2CCN(c3nc(C)cs3)C(C)C2)on1 (stereo not drawn) | -1.59%

Row | SMILES | cytotoxicity at 70.5 h
47 | O=C(c1ccc[nH]1)N1CCOCC2(CCN(C3CCOCC3)C2)C1 (stereo not drawn) | -19%
48 | Cc1ccccc1OCCCNC(=O)C1(C)CC(=O)N2C=CC=CC2=N1 (stereo not drawn) | 0.923%
49 | NC(=O)Cn1ccnc1C1CCCN(Cc2ccccc2OC(F)F)C1 (stereo not drawn) | -6.45%
50 | COc1ccc(OC)c(CNc2nnc(C(C)(C)C)o2)c1 | -12.4%
51 | Cc1cc(CN2CC[C@H]3C(=O)N(c4ccccc4)CCO[C@H]3C2)no1 | 23.6%
52 | CC(C)(C)CN(CCC#N)C(=O)Cc1ccc(-n2cnnn2)cc1 | -10.8%
53 | CC(c1ccccc1)N(C)C(=O)CN1CCCc2cccc(F)c21 (stereo not drawn) | 0.621%
54 | O=C(CN1CCCC1c1nc(-c2ccccn2)no1)N1CCOCC1 (stereo not drawn) | -7.89%
55 | CNC(=O)CN1CCCC12CCN(C(=O)c1ccoc1)CC2 | -11.1%
56 | Cc1nc(N2CCC(O)(c3ccccc3)CC2)c2c(C)nn(C)c2n1 | -3.33%
57 | O=C(NCCNc1ncccn1)C1CCN(C(=O)NC2CC2)CC1 | -4.22%
58 | Cc1ccc(C2CN(Cc3cnc(-c4ccccn4)s3)CCO2)o1 (stereo not drawn) | 22.5%
59 | O=C(c1cnn2cc(CCO)cnc12)N1CCOC(C(F)(F)F)C1 (stereo not drawn) | -13%
60 | Fc1ccccc1C1NCCc2cc3c(cc21)OCCO3 (stereo not drawn) | 0.151%
61 | Cc1ncc(CN2CCC(O)(c3ccccc3F)CC2)cn1 | -0.616%
62 | Cn1cc(CN2CCOC3(CCCN(C(=O)c4ccco4)C3)C2)cn1 (stereo not drawn) | -6.59%
63 | CN(Cc1cn2c(n1)CN(Cc1nccs1)CC2)Cc1ccco1 | -7.68%
64 | O=C1CCC2(CCCN(C(=O)c3ccoc3)C2)CN1CCc1c[nH]cn1 (stereo not drawn) | -4.81%
65 | Cc1nc(N2CCCC2)nc2c1CCN(Cc1ccco1)CC2 | -16.4%
66 | COc1cc(CNc2cc(-c3ccoc3C)nn2CCO)ccc1F | 11.9%
67 | Cc1ccc(C(=O)Nc2ccc(OC3CCN(C)CC3)cc2)c(C)c1 | -5.87%
68 | Cn1c2ccccc2c2ncn(CCN3CCOCC3)c(=O)c21 | 11.8%
69 | Cc1nc[nH]c1-c1nccn1-c1cccc(CN2CCCC2)c1 | 13%

Row | SMILES | cytotoxicity at 70.5 h
70 | O=C(NCCn1cccc1)C(c1cccnc1)N1CCCC1 (stereo not drawn) | -0.962%
71 | CCC1=N[C@@]2(CC[C@@H]3CN(CC4CC4)C[C@@H]32)C(=O)N1CC | -14%
72 | CCS(=O)(=O)CC(=O)NC(c1ccccc1)C1CCCC1 (stereo not drawn) | 0.476%
73 | Cc1nc2n(n1)CC(NCc1ccnc(-c3ccccc3)n1)CC2 (stereo not drawn) | -2.5%
74 | CN1CC(=O)N(C2CCNC2)Cc2c(NC3CCCC3)ncnc21 (stereo not drawn) | -5.19%
75 | COCCNC(=O)[C@H]1C[C@@](CC(C)C)(C(=O)O)N(C)[C@H]1c1cccnc1 | 1.74%
76 | Cc1csc(N2CCCN(C(=O)Cn3cncn3)CC2)n1 | -2.46%
77 | CCOC(=O)Cc1cs/c(=N/C(=O)COc2cnc(C)cc2O)[nH]1 | 5.42%
78 | CC(C)c1cc(C(F)(F)F)n2nc(CCC(=O)O)nc2n1 | 10.3%
79 | Cc1nn(C)c(Cl)c1C1CCCN1C(=O)c1cnn(C)c1C1CC1 (stereo not drawn) | -14.5%
80 | c1ncn(Cc2nnc(C3CCN(C4CCOCC4)CC3)n2C2CC2)n1 | -7.09%
81 | O=C(c1cnc(COc2ccccc2)nc1O)N1CCC(F)(F)CC1 | -5.82%
82 | c1cncc(COCC2CN(Cc3ccsc3)Cc3ccnn3C2)c1 (stereo not drawn) | -4.42%
83 | N#Cc1c[nH]nc1NCc1ccc2c(c1)OCO2 | -10.8%
84 | CN1CCN(Cc2ccc(-c3ccc(C(N)=O)cc3)nc2)CC1 | -7.94%
85 | CS(=O)(=O)N1CCc2c(cccc2NC(=O)Nc2ccccn2)C1 | 10.3%
86 | Cn1cc(CN2CCCN(C(=O)c3cc(Cl)cn3C)CC2)cn1 | 38.5%
87 | Cc1cccc2ncn(C(C)Cn3cccn3)c(=O)c12 (stereo not drawn) | -10.4%
88 | Cc1cnn(C2CN(CCCOc3ccc(C#N)cc3)C2)c1 | -2.39%
89 | O=C(NCc1ccc(F)cc1)N1CCC(C2OCCO2)CC1 | -10%
90 | CCc1cccc(N2CCC(NC(=O)c3cc[nH]n3)CC2)c1 | 31.2%
91 | Cc1nnc(SCCNC(=O)c2cc(S(N)(=O)=O)ccc2F)s1 | -5.1%
92 | c1cnnc(N2CCCC2CNCc2ccsc2)c1 (stereo not drawn) | -10.1%

Row | SMILES | cytotoxicity at 70.5 h
93 | CCCS(=O)(=O)N1CCC2(CCCN(c3ncc(F)cn3)C2)C1 (stereo not drawn) | -6.01%
94 | O=C(CCNC(=O)NC1CC1)NCc1ccccc1 | -6.54%
95 | CN(C)c1cc(C2CCCN(C(=O)Cn3cc(Cl)cn3)C2)ccn1 (stereo not drawn) | -4.03%
96 | O=c1c(S(=O)(=O)N2CCCC2)cccn1Cc1ccc(F)cc1Cl | 31.5%
97 | COc1ccc(NC(=O)c2ccc[nH]2)c(N2CCN(C(C)=O)CC2)n1 | -0.755%
98 | CN(Cc1nc(-c2cccnc2)no1)C(=O)c1cnc2n1CCCC2 | -6.12%
99 | CCCc1n[nH]c(C2CN(Cc3nnc(C4CC4)o3)CCO2)n1 (stereo not drawn) | 8.7%
100 | COc1ccc(CN2C[C@@H]3CC[C@H](C2)N(S(C)(=O)=O)C3)cc1 | -7.94%
101 | O=C(Nc1cnccn1)[C@@H]1CCO[C@@H]2CCN(Cc3ccsc3)C[C@@H]21 | -9.48%
102 | CNC(=O)C1Cn2ccnc2C2(CCN(Cc3nccs3)CC2)O1 (stereo not drawn) | 10.7%
103 | CCc1nc2n(n1)CC(NCC(=O)Nc1oc(C)c(C)c1C#N)CC2 (stereo not drawn) | 7.08%
104 | CCC(C)NS(=O)(=O)Cc1cccc(NC(=O)C(C)C)c1 (stereo not drawn) | -2.19%
105 | CCN(C(c1cccnc1)c1cc(C)cc(C)c1)S(C)(=O)=O (stereo not drawn) | -9.96%
106 | COCC(NC(=O)c1cnc(-c2ccncc2)nc1)c1ccnn1C (stereo not drawn) | -5.01%
107 | COc1ccc(-c2ccnc3c2C(=O)CCC3)cc1 | 25.7%
108 | CN(Cc1ccc(-n2cccn2)cc1)Cc1cnc(N(C)C)nc1 | -8.45%
109 | O=C(NCCN1CCOCC1)NCc1ncc(-c2ccccc2)o1 | -11.5%
110 | CCCc1nc(N2CCSCC2)c2c(n1)c(C)nn2CC | -13.1%
111 | Cc1nc(C2CCCCN2S(C)(=O)=O)no1 (stereo not drawn) | -13.4%
112 | O=C(NCCOc1ccccc1)Nc1cc(C(F)(F)F)c[nH]c1=O | -1.52%
113 | Cc1cnc(C)c(N2CCN(CCCc3[nH]nc(C)c3C)CC2)n1 | 1.19%
